Reference: patent US10456388B2, “Antihistamine for use in treatment of breast cancer” (BELINA PHARMA AB, priority 2015, dated 2019)
Read-outs that look alike come from different tables or passages of the source.

Key:
[1] = test system: women with invasive BC; conditions: for BC specific survival compared to controls (Kaplan-Meier, univariate): ever-use model, FIGS. 1 to 3; for Dead in BC (Yes): groups by main antihistamine used, all patients from 2000-2008
[2] = test system: breast cancer cases; assay: Replication study, extended breast cancer material Swedish Cancer Registry 2000-2013 (n=103 500 cases), late entry models; format: in vivo, human; conditions: for Breast cancer survival HR / Overall survival HR: use after diagnosis, adjusted for age, tumour stage, late entry models; for BC survival HR: extended study, real patient data; for Survival of users compared with non-users, in words: replication study, Table 10; for Breast cancer survival HR by desloratadine use: late entry model
Method: Using an extended breast cancer material of all cases from the Swedish Cancer Registry 2000-2013 (n=103 500 cases) linking the data with the Drug Prescription Registry a replication study was carried out. The data from this extended study can be found in Tables 10 and 11. With the larger set of data, the effect for each individual antihistamine becomes more pronounced.
Using an extended breast cancer material of all cases from the Swedish Cancer Registry 2000-2013 (n=103 500 cases) linking the data with the Drug Prescription Registry a replication study was carried out. The data from this extended study are represented in tables 10 and 11.
Using an extended breast cancer material of all cases from the Swedish Cancer Registry 2000-2013 (n=103 500 cases) linking the data with the Drug Prescription Registry, a replication study was carried out, as shown in table 10.

[3] = test system: women with invasive BC; conditions: for Hazard ratio Exp(B), ER Negative Breast Cancer / Hazard ratio Exp(B), ER Positive Breast Cancer / BC specific survival compared to controls (Kaplan-Meier, univariate): late entry model; for Hazard ratio Exp(B), ER Negative Breast Cancer / Hazard ratio Exp(B), ER Positive Breast Cancer / Hazard ratio Exp(B), Cox proportional hazard - late entry model: adjusted for age at BC diagnosis and TN-stage; for HR (CI), late entry model: adjusted for age at BC diagnosis and TN; for Hazard ratio Exp(B), Cox proportional hazard - late entry model: ever-use vs controls, cases before 1st of Jul. 2005 and unknown N-status censored, Table 5; for Dead in BC (Yes): groups by main antihistamine used, patients from 1st of Jul. 2005-31st of Dec. 2008; for BC specific survival compared to controls (Kaplan-Meier, univariate): FIGS. 4 and 5
[4] = multi dose studies with 100 mg per day; cited from earlier work
[5] = Survival 2009-2014 (title: 2009-2013)

Row | Structure (SMILES) | BC specific survival compared to controls (Kaplan-Meier, univariate) [1] | Dead in BC (Yes) [1] | Breast cancer survival HR ([2]; Survival 2005-2008) | Overall survival HR ([2]; Survival 2005-2008) | Breast cancer survival HR [2, 5] | Overall survival HR [2, 5] | BC survival HR [2] | Survival of users compared with non-users, in words [2] | Hazard ratio Exp(B), ER Negative Breast Cancer [3] | Hazard ratio Exp(B), ER Positive Breast Cancer [3] | HR (CI), late entry model [3] | Hazard ratio Exp(B), Cox proportional hazard - late entry model [3] | Dead in BC (Yes) [3] | BC specific survival compared to controls (Kaplan-Meier, univariate) [3] | Breast cancer survival HR by desloratadine use ([2]; <400 days use vs never) | Survival HR, users compared with non users ([2]; years before 2009) | Breast cancer survival HR by desloratadine use ([2]; ≥400 days use vs never) | Effect on breast cancer survival rate by treatment period (FIG. 7) ([3]; use only after the BC diagnosis) | Effect on breast cancer survival rate by treatment period (FIG. 7) ([3]; use only before the BC diagnosis) | Clinical side effects [4]
1 | O=C(O)COCCN1CCN(C(c2ccccc2)c2ccc(Cl)cc2)CC1 (centres unmarked) [Cetirizine, cetirizine] | initially had a higher survival percentage compared to controls, but with time it became lower compared to controls | 18.0% | 1.08 | 1.41 | 1.21 | 1.09 | 1.28 | negatively affects survival | 1.491 | 2.166 | 1.13 (0.96-1.33) | 1.194 | 16.5% | non-statistically significant longer BC specific survival |  |  |  |  |  | 
2 | CCOC(=O)N1CCC(=C2c3ccc(Cl)cc3CCc3cccnc32)CC1 [Loratadine, loratadine] | clear, statistically significant, longer BC specific survival | 11.7% | 0.77 | 1.05 | 0.93 | 0.86 |  |  | .945 | 1.087 | 0.74 (0.60-0.93) | .816 | 10.4% | statistically significant longer BC specific survival |  |  |  |  |  | 
3 | CC(C)(C(=O)O)c1ccc(C(O)CCCN2CCC(C(O)(c3ccccc3)c3ccccc3)CC2)cc1 (centres unmarked) [Fexofenadine, fexofenadine] | clear, statistically significant, longer BC specific survival | 9.0% | 1.20 | 1.40 | 0.85 | 0.65 |  |  | .316 | .826 | 0.73 (0.30-1.76) | .802 | 11.6% | non-statistically significant longer BC specific survival |  |  |  |  |  | 
4 | Clc1ccc2c(c1)CCc1cccnc1C2=C1CCNCC1 [Desloratadine, desloratadine] | clear, statistically significant, longer BC specific survival | 7.1% | 0.47 | 0.47 | 0.74 | 0.71 |  | better overall and BC specific survival |  |  |  |  | 8.1% | statistically significant longer BC specific survival | 0.94 | 0.63 | 0.62 | clear positive effects can be shown | no positive effects on breast cancer survival rate can be established | 
5 | CC(C)(C)c1ccc(C(=O)CCCN2CCC(OC(c3ccccc3)c3ccccc3)CC2)cc1 [Ebastin, ebastin] | clear, statistically significant, longer BC specific survival | 6.7% | 0.25 | 0.48 | 0.75 | 0.91 |  | better overall and BC specific survival |  |  | 0.50 (0.22-1.12) |  | 5.7% | statistically significant longer BC specific survival |  |  |  |  |  | did not show any further clinical side effects
6 | CN1CCC[C@@H]1CCO[C@](C)(c1ccccc1)c1ccc(Cl)cc1 [Klemastine, klemastine] | clear, statistically significant, longer BC specific survival | 13.8% | 1.43 | 2.07 | 0.94 | 1.08 | 1.12 | negatively affects survival |  |  | 0.98 (0.80-1.19) |  | 14.3% | non-statistically significant longer BC specific survival |  |  |  |  |  | 
